Reference: patent US20170226072A1, “1,4-Disubstituted Piperidines, 1,4-Disubstituted Piperazines, 1,4-Disubstituted Diazepines, and 1,3-Disubstituted Pyrrolidine Compounds” (University of Kentucky Research Foundation, priority 2013, published 2017)

What was measured:
VMAT2 [1] = molecular target: T1, VMAT2 (Rattus norvegicus, UniProt Q01827); experiment: [3H]Dopamine ([3H]DA) uptake assay, vesicular preparation; type: biochemical
T1 construct: conducted using isolated synaptic vesicle preparations; from tissue; host or cells: rat striatum, isolated synaptic vesicles
Experimental: [^3H]Dopamine ([^3H]DA) Uptake Assay, Vesicular Preparation
Homogenates were centrifuged (2,000 g for 10 min at 4° C.), and then the supernatants were centrifuged (10,000 g for 30 min at 4° C.). Pellets were resuspended in 2 ml of 0.32 M sucrose solution and subjected to osmotic shock by adding 7 ml of ice-cold MilliQ water to the preparation. After 1 min, osmolarity was restored by adding 900 μl of 0.25 M HEPES buffer and 900 μl of 1.0 M potassium tartrate solution. Samples were centrifuged (20,000 g for 20 min at 4° C.), and the supernatants were centrifuged (55,000 g for 1 hr at 4° C.), followed by addition of 100 μl of 10 mM MgSO4, 100 μl of 0.25 M HEPES and 100 μl of 1.0 M potassium tartrate solution prior to the final centrifugation (100,000 g for 45 min at 4° C.). Final pellets were resuspended in 2.4 ml of assay buffer (25 mM HEPES, 100 mM potassium tartrate, 50 μM EGTA, 100 μM EDTA, 1.7 mM ascorbic acid, 2 mM ATP-Mg^2+, pH 7.4). Aliquots of the vesicular suspension (100 μl) were added to tubes containing assay buffer, various concentrations of compound (0.1 nM-10 mM) and 0.1 μM [^3H]DA in a final volume of 500 and incubated at 37° C. for 8 min. […] Reactions were terminated by filtration, and radioactivity retained by the filters was determined by liquid scintillation spectrometry (Tri-Carb 2100TR liquid scintillation analyzer; PerkinElmer Life and Analytical Sciences, Boston, Mass.).

[2] = molecular target: T2, dopamine transporter (DAT) (Rattus norvegicus, UniProt P23977); experiment: [3H]DA uptake assay, striatal synaptosomal preparation; type: biochemical; conditions: rat striatal synaptosomes; read-out: DAT [3H]DA Uptake Inhibition Mean ± SEM (Ki)
T2 construct: from tissue; host or cells: rat striatum, synaptosomes
Experimental: (§1) [^3H]DA and [^3H]5-HT Uptake Assay, Synaptosomal Preparation
(§2) [^3H]DA and [^3H]5-HT uptake into striatal synaptosomes was determined to evaluate compound inhibition of the dopamine transporter (DAT) and the serotonin transporter (SERT), respectively. […] Homogenates were centrifuged at 2000 g for 10 min at 4° C., and resulting supernatants were centrifuged at 20,000 g for 17 min at 4° C. […] Assays were performed in duplicate in a total volume of 500 (for DAT assays) or 250 μL (for SERT assays). […] Reactions were terminated by addition of 3 mL of ice-cold assay buffer and subsequent filtration and radioactivity retained by the filters was determined by liquid scintillation spectrometry (Tri-Carb 2100TR liquid scintillation analyzer; PerkinElmer Life and Analytical Sciences, Boston, Mass.).

hERG channel = molecular target: T3, hERG channel (Homo sapiens, UniProt Q12809); experiment: [3H]Dofetilide binding assay, HEK-293 cell membrane preparation; conditions: HEK-293 cell membranes expressing hERG, 5 nM [3H]dofetilide; read-out: hERG [3H]Dofetilide Binding Inhibition Mean ± SEM (IC50)
T3 construct: expressed in transfected cells
Experimental: [^3H]Dofetilide Binding Assay, HEK-293 Cell Membrane Preparation
[^3H]Dofetilide binding assays were conducted using commercially available HEK-293 cell membranes which stably express the hERG channel. Membranes were suspended in assay buffer (50 mM Tris, 10 mM KCl, 1 mM MgCl2, pH 7.4) prior to the experiment. Assays were performed in duplicate in a total volume of 250 μL. Aliquots of the HEK-293 cell membrane suspension which contained 5 μg membrane protein were added to tubes containing assay buffer, 5 nM [^3H]dofetilide and a range of concentrations of analog (10 nM-100 μM). Nonspecific binding was determined in the presence of amitriptyline (1 mM). Samples were incubated for 1 hr. at 24° C., followed by rapid filtration. Radioactivity retained by the filters was determined by liquid scintillation spectrometry as described above for the [^3H]DA uptake assay. The affinity for the [^3H]dofetilide binding site on the hERG channel expressed in the HEK-293 cellular membrane was determined from the analog concentration response curves.

[3] = molecular target: T4, serotonin transporter (SERT) (Rattus norvegicus, UniProt P31652); experiment: [3H]5-HT uptake assay, striatal synaptosomal preparation; type: biochemical; conditions: rat striatal synaptosomes, GBR-12935 (100 nM) in buffer; read-out: SERT [3H]5-HT Uptake Inhibition Mean ± SEM (Ki)
T4 construct: from tissue
Experimental: as §1, §2

VMAT2 [4] = molecular target: T1, VMAT2; experiment: [3H]Dihydrotetrabenazine ([3H]DTBZ) binding assay, vesicular preparation; conditions: rat brain synaptic vesicles, 3 nM [3H]DTBZ; read-out: Inhibition of [3H]DTBZ binding (Ki) VMAT2
Experimental: [^3H]Dihydrotetrabenazine ([^3H]DTBZ) Binding Assay, Vesicular Preparation
The resulting supernatant (S1) was then centrifuged at 22,000 g for 10 min at 4° C. The synaptosomal pellets (P2) were homogenized in 18 mL of ice-cold Milli-Q water and exposed for 5 min for lysing synaptosomes. Osmolarity was restored by addition of 2 mL of 25 mM HEPES with 100 mM dipotassium tartrate (pH 7.5). Samples were centrifuged at 20,000 g for 20 min at 4° C. to remove lysed synaptosomal membranes. MgSO4 (1 mM) was added to the supernatant (S3), and was centrifuged at 100,000 g for 45 min at 4° C. […] Aliquot parts (100 μL) of suspension of vesicle membrane protein were incubated in assay buffer (25 mM HEPES, 100 mM dipotassium tartrate, 5 mM MgSO4, 0.1 mM EDTA and 0.05 mM EGTA, pH 7.5, at 25° C.) in the presence of 3 nM [^3H]DTBZ and at least 7 concentrations (1 nM-1 mM) of compound for 1 hr at room temperature. Nonspecific binding was determined in the presence of 20 μM tetrabenazine, a standard compound. Assays were performed in duplicate using a 96-well plate format. Reactions were terminated by filtration of samples on a Unifilter-96 GF/B filter plates (presoaked in 0.5% polyethylenimine), using a FilterMate harvester (Packard BioScience Co., Meriden, Conn.).
After washing 5 times with 350 μL of the ice-cold wash buffer (25 mM HEPES, 100 mM dipotassium tartrate, 5 mM MgSO4 and 10 mM NaCl, pH 7.5), filter plates were dried, sealed and each well filled with 40 μL Packard's MicroScint 20 cocktail. Bound [^3H]DTBZ was measured using a Packard TopCount NXT scintillation counter with a Packard Windows NT based operating system.

[5] = test system: VMAT2 over hERG, DAT and SERT; experiment: Lead compound criteria: 30-fold selectivity for VMAT2 over hERG, DAT and SERT; conditions: criterion: 30-fold selectivity for VMAT2 over hERG
Description: Accordingly, this test assessed the potential of the tested compounds to produce cardiac arrhythmias via interaction at this off-target site. The criterion for compounds to be considered leads was a 30-fold selectivity for VMAT2 over hERG.

[6] = rat striatal synaptic vesicles, 0.1 μM [3H]DA, read-out: [3H]DA Uptake (Ki) VMAT2
[7] = synaptic vesicle preparations, summary of Table 1, read-out: inhibition of [3H]DA uptake, Ki

T2 sequence (P23977 whole entry): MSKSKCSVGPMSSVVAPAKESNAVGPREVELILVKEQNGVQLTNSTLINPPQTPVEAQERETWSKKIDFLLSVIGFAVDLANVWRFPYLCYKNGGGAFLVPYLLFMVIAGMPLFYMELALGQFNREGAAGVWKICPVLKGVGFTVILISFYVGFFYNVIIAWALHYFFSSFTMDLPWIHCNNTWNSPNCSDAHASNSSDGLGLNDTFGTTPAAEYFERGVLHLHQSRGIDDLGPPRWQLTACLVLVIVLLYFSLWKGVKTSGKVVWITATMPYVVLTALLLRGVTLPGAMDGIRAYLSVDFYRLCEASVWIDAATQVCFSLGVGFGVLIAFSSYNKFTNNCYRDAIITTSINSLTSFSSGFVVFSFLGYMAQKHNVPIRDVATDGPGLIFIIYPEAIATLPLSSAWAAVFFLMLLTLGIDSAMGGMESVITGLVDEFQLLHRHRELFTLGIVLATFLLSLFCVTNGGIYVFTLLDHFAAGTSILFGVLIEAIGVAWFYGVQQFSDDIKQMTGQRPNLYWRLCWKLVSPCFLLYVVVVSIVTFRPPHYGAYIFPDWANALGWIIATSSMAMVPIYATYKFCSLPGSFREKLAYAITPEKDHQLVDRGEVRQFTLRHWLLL
T1 sequence (Q01827 whole entry): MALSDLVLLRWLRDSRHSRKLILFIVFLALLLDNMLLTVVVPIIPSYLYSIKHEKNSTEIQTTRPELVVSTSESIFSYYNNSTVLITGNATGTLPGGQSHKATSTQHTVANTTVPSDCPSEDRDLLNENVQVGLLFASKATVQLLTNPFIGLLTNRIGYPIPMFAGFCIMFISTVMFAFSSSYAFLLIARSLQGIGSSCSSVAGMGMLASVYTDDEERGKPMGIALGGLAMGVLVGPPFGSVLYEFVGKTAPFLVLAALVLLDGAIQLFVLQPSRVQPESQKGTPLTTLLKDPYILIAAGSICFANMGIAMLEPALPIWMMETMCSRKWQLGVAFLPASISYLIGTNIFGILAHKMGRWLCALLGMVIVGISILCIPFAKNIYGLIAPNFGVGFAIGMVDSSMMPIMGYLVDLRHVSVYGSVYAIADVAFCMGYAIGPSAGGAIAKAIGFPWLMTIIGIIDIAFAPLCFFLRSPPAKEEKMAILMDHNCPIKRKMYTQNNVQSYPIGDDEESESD
T3 sequence (Q12809 whole entry): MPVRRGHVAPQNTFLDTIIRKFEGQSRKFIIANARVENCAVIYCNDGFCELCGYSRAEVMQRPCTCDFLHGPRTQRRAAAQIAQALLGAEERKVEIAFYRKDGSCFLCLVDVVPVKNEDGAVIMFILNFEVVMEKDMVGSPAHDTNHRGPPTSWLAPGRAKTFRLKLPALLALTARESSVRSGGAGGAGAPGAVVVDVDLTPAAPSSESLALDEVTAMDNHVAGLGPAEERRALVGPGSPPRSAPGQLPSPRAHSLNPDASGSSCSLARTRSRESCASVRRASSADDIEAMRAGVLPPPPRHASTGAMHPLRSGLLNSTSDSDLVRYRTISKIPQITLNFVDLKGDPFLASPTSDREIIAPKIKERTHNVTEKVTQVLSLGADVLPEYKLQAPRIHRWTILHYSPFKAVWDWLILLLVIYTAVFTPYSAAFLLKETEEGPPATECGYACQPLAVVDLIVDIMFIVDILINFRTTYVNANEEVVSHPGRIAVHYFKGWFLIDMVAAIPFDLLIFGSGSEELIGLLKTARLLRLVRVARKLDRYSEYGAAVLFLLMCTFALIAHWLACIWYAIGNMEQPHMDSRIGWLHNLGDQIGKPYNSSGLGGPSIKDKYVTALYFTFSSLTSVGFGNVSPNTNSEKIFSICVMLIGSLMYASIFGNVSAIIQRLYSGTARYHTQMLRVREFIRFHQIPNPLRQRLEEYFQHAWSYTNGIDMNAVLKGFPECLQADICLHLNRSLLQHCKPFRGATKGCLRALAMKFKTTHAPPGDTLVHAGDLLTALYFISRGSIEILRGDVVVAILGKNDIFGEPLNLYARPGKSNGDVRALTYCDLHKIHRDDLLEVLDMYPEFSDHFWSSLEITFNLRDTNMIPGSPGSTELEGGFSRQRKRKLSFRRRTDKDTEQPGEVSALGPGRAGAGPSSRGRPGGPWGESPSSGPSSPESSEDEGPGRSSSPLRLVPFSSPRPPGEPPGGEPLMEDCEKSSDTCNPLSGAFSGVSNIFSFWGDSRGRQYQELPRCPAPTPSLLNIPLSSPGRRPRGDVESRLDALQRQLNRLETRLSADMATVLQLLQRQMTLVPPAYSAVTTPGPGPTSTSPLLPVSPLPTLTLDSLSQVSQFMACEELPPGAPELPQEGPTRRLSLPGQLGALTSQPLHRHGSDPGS
T4 sequence (P31652 whole entry): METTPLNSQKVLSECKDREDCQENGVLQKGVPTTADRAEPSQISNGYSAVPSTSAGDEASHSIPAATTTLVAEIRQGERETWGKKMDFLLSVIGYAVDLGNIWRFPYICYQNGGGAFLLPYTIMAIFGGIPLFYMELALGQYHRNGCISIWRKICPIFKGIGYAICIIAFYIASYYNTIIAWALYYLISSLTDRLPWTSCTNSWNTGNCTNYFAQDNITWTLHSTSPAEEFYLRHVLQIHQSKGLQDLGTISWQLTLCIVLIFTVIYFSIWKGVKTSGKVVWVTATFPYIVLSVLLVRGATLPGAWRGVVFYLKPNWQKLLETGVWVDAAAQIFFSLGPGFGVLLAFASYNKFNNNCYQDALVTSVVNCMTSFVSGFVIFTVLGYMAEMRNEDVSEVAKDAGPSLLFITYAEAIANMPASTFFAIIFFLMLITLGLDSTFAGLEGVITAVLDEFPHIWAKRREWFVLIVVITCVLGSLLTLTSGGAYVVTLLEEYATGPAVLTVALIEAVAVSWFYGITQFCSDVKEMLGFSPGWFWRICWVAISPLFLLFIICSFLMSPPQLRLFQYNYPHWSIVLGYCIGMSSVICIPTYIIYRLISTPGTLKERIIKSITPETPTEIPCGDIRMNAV

Row | SMILES | Ki (VMAT2 [1]; [6]) [µM] | Ki [2] [µM] | IC50 (hERG channel) [µM] | Ki [3] [µM] | Ki (VMAT2 [4]) [µM] | Ki (VMAT2 [1]; [7]) [µM] | lead compound status (30-fold selectivity for VMAT2 over hERG, DAT and SERT) [5]
1 | COc1cccc(CCN2CCC(CCc3ccccc3)CC2)c1 [Compound 2] | 0.022 ± 0.00087 | 3.13 ± 0.19 | 0.489 ± 0.0847 | 1.15 ± 0.09 | 0.265 ± 0.038 | – | –
2 | COc1ccccc1CCC1CCN(CCc2ccccc2OC)CC1 [Compound 12, 1,4-bis(2-methoxyphenethyl)piperidine] | 0.0093 ± 0.0006 | 3.45 ± 0.45 | 1.07 ± 0.0906 | 0.12 ± 0.01 | 0.19 ± 0.0088 | 0.009 to 0.02 | successfully met the criteria for lead compound status
3 | COc1ccccc1CCC1CCN(CCc2ccccc2)CC1 [Compound 13] | 0.022 ± 0.0028 | 3.56 ± 1.21 | 1.65 ± 0.67 | 0.75 ± 0.18 | 0.69 ± 0.05 | – | successfully met the criteria for lead compound status
4 | COc1ccc(CCC2CCN(CCc3ccccc3Cl)CC2)cc1 [Compound 24] | 0.04 ± 0.007 | 5.16 ± 1.25 | 2.09 ± 0.391 | 4.15 ± 1.45 | 0.23 ± 0.02 | – | successfully met the criteria for lead compound status
5 | COc1ccccc1CCC1CCN(CCc2ccc(F)cc2)CC1 [Compound 29, 1-(4-fluorophenethyl)-4-(2-methoxyphenethyl)piperidine] | 0.013 ± 0.0021 | 4.13 ± 0.44 | 0.347 ± 0.0188 | 0.58 ± 0.07 | 0.4 ± 0.097 | 0.009 to 0.02 | –
6 | c1ccc(CCN2CCN(CCc3ccccc3)CC2)cc1 [Compound 54, 1,4-diphenethylpiperazine] | 0.11 ± 0.012 | 13.6 ± 2.69 | 3.39 ± 1.94 | 11.4 ± 4.14 | 3.05 ± 0.64 | – | –
7 | COc1ccccc1CCN1CCN(CCc2ccccc2OC)CC1 [Compound 55] | – | 14.4 ± 0.456 | 1.02 ± 0.18 | 1.58 ± 0.415 | – | – | –
8 | COc1cccc(CCN2CCN(CCc3cccc(OC)c3)CC2)c1 [Compound 56] | – | 7.9 ± 2.89 | 1.49 ± 0.204 | 3.62 ± 1.3 | – | – | –
9 | Clc1ccccc1CCN1CCN(CCc2ccccc2Cl)CC1 [Compound 58] | – | 6.31 ± 1.01 | 1.08 ± 0.175 | 3.34 ± 1.53 | – | – | –
10 | Fc1ccc(CCN2CCN(CCc3ccc(F)cc3)CC2)cc1 [Compound 59] | 0.058 ± 0.012 | 6.58 ± 1.41 | 0.362 ± 0.0155 | 4.95 ± 0.9 | 3.71 ± 0.48 | – | –
11 | COc1ccccc1CCN1CCN(CCc2ccccc2)CC1 [Compound 60] | – | 12.8 ± 4.46 | 3.19 ± 0.327 | 2.58 ± 0.415 | – | – | –
12 | COc1cccc(CCN2CCN(CCc3ccccc3)CC2)c1 [Compound 61] | 0.098 ± 0.016 | 17.2 ± 4.52 | 4.23 ± 0.86 | 6.92 ± 1.35 | 1.3 ± 0.33 | – | successfully met the criteria for lead compound status
13 | COc1ccc(CCN2CCN(CCc3ccccc3)CC2)cc1 [Compound 62] | 0.1 ± 0.011 | 11.6 ± 3.08 | 9.19 ± 0.375 | 3.72 ± 0.02 | 4.63 ± 1.31 | – | successfully met the criteria for lead compound status
14 | Fc1ccc(CCN2CCN(CCc3ccccc3)CC2)cc1 [Compound 64] | 0.088 ± 0.0069 | 8.04 ± 2.57 | 2.29 ± 0.475 | 4.46 ± 0.727 | 3.86 ± 1.01 | – | –
